Patent publication US10570096B2, “Diamino pyridine derivatives” (NOVARTIS AG, priority 2015, dated 2020)
pIC50: −log10 of the molar value.

Columns and labels:
Format in all cases: biochemical
Tyk2 = biological target: T1, Tyk2 (Homo sapiens, UniProt P29597); assay: Enzymatic JAK assay (Caliper mobility shift), Tyk2; conditions: GST-TYK2(888-1187) kinase domain, 3.5 nM enzyme, 35 μM ATP (KmATP), 30° C., 60 minutes
T1 construct: GST-TYK2(888-1187); host or cells: insect cells
T1 sequence (P29597 888-1187): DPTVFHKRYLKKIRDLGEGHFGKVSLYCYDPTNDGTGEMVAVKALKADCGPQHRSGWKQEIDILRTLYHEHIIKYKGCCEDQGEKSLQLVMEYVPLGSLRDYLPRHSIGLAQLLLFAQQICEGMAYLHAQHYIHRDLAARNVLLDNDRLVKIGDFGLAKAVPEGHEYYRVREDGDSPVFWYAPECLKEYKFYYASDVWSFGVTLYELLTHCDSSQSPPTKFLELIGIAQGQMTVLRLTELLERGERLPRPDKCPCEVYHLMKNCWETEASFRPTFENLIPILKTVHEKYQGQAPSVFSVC
Description: (§1) Enzymatic JAK assays. For enzyme assays affinity-purified GST-fusions of the active kinase domains (GST-JAK1 (866-1154), GST-JAK2 (808-1132), GST-JAK3 (811-1124), and GST-TYK2(888-1187) were expressed in insect cells or purchased from Invitrogen (Carlsbad, USA). All assays were performed in 384-well microtiter plates with 8-point serial dilutions of compounds. The kinase reactions were started by stepwise addition of 4.5 μl per well of a 2× peptide/ATP-solution and 4.5 μl per well of a 2× enzyme solution. The final ATP concentration used in the assays corresponds to the individually determined KmATP for the respective enzyme. Assay buffer: 50 mM HEPES, pH 7.5, 1 mM DTT, 0.02% Tween20, 0.02% BSA, 0.6% DMSO, 10 mM beta-glycerophosphate, and 10 μM sodium orthovanadate. Other components were adjusted specifically for the respective kinase assays: JAK1: 16 nM enzyme, 70 μM ATP, 2 μM peptide substrate, 12 mM MgCl2. JAK2: 1.8 nM enzyme, 20 μM ATP, 2 μM peptide substrate, 9 mM MgCl2. JAK3: 13 nM enzyme, 18 μM ATP, 2 μM peptide substrate, 1.5 mM MgCl2. Tyk2: 3.5 nM enzyme, 35 μM ATP, 2 μM peptide substrate, 9 mM MgCl2. […] Phosphorylated and unphosphorylated peptides were separated using the Caliper microfluidic mobility shift technology on a Caliper LC3000 workstation and kinase activities were calculated from the amounts of formed phospho-peptide.

JAK1 = biological target: T2, JAK1 (Homo sapiens, UniProt P23458); assay: Enzymatic JAK assay (Caliper mobility shift), JAK1; conditions: GST-JAK1 (866-1154) kinase domain, 16 nM enzyme, 70 μM ATP (KmATP), 30° C., 60 minutes
T2 construct: GST-fusions of the active kinase domains (GST-JAK1 (866-1154)); host or cells: insect cells
Description: as §1

JAK2 = biological target: T3, JAK2 (Homo sapiens, UniProt O60674); assay: Enzymatic JAK assay (Caliper mobility shift), JAK2; conditions: GST-JAK2 (808-1132) kinase domain, 1.8 nM enzyme, 20 μM ATP (KmATP), 30° C., 60 minutes
T3 construct: GST-JAK2 (808-1132); host or cells: insect cells
Description: as §1

JAK3 = biological target: T4, JAK3 (Homo sapiens, UniProt P52333); assay: Enzymatic JAK assay (Caliper mobility shift), JAK3; conditions: GST-JAK3 (811-1124) kinase domain, 13 nM enzyme, 18 μM ATP (KmATP), 30° C., 60 minutes
T4 construct: GST-JAK3 (811-1124); host or cells: insect cells
Description: as §1

T3 sequence (O60674 808-1132): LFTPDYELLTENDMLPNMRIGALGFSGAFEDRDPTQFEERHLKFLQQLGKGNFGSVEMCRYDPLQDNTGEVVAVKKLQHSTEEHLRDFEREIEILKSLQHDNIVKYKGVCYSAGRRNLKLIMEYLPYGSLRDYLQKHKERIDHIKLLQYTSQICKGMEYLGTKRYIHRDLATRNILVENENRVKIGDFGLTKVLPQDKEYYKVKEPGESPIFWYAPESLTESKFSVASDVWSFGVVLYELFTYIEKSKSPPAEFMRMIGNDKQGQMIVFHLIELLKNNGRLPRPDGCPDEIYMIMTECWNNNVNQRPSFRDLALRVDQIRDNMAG
T2 sequence (P23458 866-1154): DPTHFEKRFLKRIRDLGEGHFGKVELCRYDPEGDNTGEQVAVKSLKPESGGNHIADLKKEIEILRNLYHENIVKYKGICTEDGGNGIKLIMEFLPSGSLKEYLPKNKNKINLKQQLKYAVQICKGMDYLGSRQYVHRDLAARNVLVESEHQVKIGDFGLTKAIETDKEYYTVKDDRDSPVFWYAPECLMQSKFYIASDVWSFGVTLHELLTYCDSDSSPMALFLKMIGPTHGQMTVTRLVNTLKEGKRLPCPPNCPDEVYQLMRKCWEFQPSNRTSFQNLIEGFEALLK
T4 sequence (P52333 811-1124): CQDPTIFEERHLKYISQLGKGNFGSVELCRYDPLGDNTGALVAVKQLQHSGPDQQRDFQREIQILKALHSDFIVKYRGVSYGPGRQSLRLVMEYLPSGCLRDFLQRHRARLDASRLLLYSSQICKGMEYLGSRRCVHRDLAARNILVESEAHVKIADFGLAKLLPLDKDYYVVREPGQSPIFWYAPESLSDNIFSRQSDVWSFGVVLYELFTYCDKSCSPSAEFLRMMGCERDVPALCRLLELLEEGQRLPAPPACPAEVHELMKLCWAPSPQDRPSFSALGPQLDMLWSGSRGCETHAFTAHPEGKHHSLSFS

| pIC50 (Tyk2) | pIC50 (JAK1) | pIC50 (JAK2) | pIC50 (JAK3) | SMILES |
| --- | --- | --- | --- | --- |
| 7.62 | 7.92 | 7.60 | 7.82 | Cc1cccc(Nc2cc(Nc3ccccc3Cl)c(C(N)=O)cn2)n1 [Example 2, 4-((2-chlorophenyl)amino)-6-((6-methylpyridin-2-yl)amino)nicotinamide] |
| 7.85 | 7.74 | 7.85 | 8.05 | NC(=O)c1cnc(Nc2ccccn2)cc1Nc1ccccc1Cl [Example 1, 4-((2-chlorophenyl)amino)-6-(pyridin-2-ylamino)nicotinamide] |
